The values that follow come from PMC4785407, “Reduction Impairs the Antibacterial Activity but Benefits the LPS Neutralization Ability of Human Enteric Defensin 5” (Scientific Reports, 2016).

Ends that are not written are not given here.

For data set [1] the following is noted: flexible N-terminus; cited from earlier work. From the text: Changes in function follow changes in structure.
The test system of data set [2] is bacteria. Particulars: cited from earlier work. From the text: Oxidized human defensin 5 (HD5OX), a 32-residue α defensin, is stored in the secretory granules of Paneth cells in the small intestine as a propeptide (E20-R94) and is processed by anionic and/or meso isoforms of trypsin during secretion or shortly thereafter at a cleavage site between R62 and A63[6]. […] We have previously prepared bioactive HD5OX using Pichia pastoris and design ... || HD5OX is an endogenous bactericidal agent.

For data set [3], the system named is LPS-binding protein (LBP); LPS-stimulated macrophages. Particulars: cited from earlier work. The text has this:
Human defensins are also noted for their immunoregulatory properties. […] Additionally, some defensins are able to suppress the pro-inflammatory effect of bacterial lipopolysaccharide (LPS). For example, H ...

Data set [4] deals with interaction between LPS and LBP (mouse LBP). Description: LPS-binding protein (LBP) block assay. Particulars: 200 ng/mL, positive control; mouse LBP 60 ng/mL, biotinylated LPS 50 ng/mL. Type of data set: biochemical. As to the method: The effects of peptides on the interaction between LPS and low concentrations of LBP were determined as previously described. Briefly, the plates of a LBP ELISA kit (Boster EK1274) were blocked by the incubation of 1% BSA prepared in 10 mM sodium phosphate buffer (pH 7.4) at 37 °C for 1 h, which were subsequently washed with 0.1% Tween-20. Aliquots of 100 μL of mouse LBP (Sigma SRP6034, 60 ng/mL) were added and incubated at 37 °C for 1.5 h. Peptides were prepared in sterile water, with concentrations of 12.5, 25, and 50 μg/mL, respectively. Biotinylated LPS (50 ng/mL) was added in the absence or presence of peptides (pre-incubated at 37 °C for 30 min). Polymyxin B (200 ng/mL) was used as a positive control. The binding of LPS to LBP was determined using a chromogenic reaction between HRP-conjugated streptavidin (Boster BA1088) and TMB (Sigma 860336). Data were processed by subtracting the absorbance in the absence of LPS. Statistical significance was determined by the Student−Newman−Keuls multiple comparisons test.
Figure 5. The efficiencies of peptides in blocking the interaction between LPS and LBP. A LBP ELISA plate was blocked by 1% BSA and subsequently washed with 0.1% Tween-20. Aliquots of 100 μL of the mouse LBP (60 ng/mL) was added and incubated at 37°C for 1.5 h. Peptides were prepared in sterile water, with concentrations of 12.5, 25, and 50 μg/mL, respectively. Biotinylated LPS (50 ng/mL) was then added in the absence or presence of peptides (pre-incubated at 37°C for 30 min). Data were processed by subtracting the absorbance in the absence of biotinylated LPS. Statistical significance was determined by the Student−Newman−Keuls multiple comparisons test. n.s, not significant; **, p < 0.01, relative to the value of the group solely treated with LPS.

Turning to “HBD3: human β defensin cited from the literature (GIINTLQKYYCRVRGGRCAVLSCLPKEEQIGKCSTRGRKCCRRKK; ends and bridges not checked; cysteine pairing not given here; UniProt P81534 23-67, looked up)”, the “conformation in SDS micelles” value in data set [1] is listed as “adopts a α-helical-containing structure”. In data set [2], the “function without disulfide bonds” value is listed as “can function well without disulfide bonds”. Take “HNP1: human neutrophil peptide cited from the literature”: the “interaction between LPS and low concentrations of LBP; TNF-α production” value in data set [3] was “can block the interaction between LPS and low concentrations of LPS-binding protein”. Besides, the “antibacterial property on loss of disulfide bonds” value in data set [2] is listed as “loss of disulfide bonds attenuates the antibacterial property”. In the case of Polymyxin B [PB, reference compound], the “effect on the interaction between LPS and LBP” value in data set [4] was “significantly inhibited the LPS-LBP interaction”. In the case of “human β defensin (HBD) 1 (DHYNCVSSGGQCLYSACPIFTKIQGTCYRGKAKCCK; ends and bridges not checked; cysteine pairing not given here; UniProt P60022 33-68, looked up) [HBD1, ubiquitously expressed peptide in human epithelia]”, the “interaction between LPS and low concentrations of LBP; TNF-α production” value in data set [3] is “can block the interaction between LPS and low concentrations of LPS-binding protein”. Also, the “antibacterial activity upon reduction” value in data set [2] (disulfide reduction) was “enhanced upon reduction”.
